Measurements taken from US20250319206A1, “CRISPR/CAS GENE EDITING OF NEH4 AND/OR NEH5 DOMAINS IN NRF2” (Christina Care Gene Editing Institute, Inc., priority 2024, published 2025).

How the values were obtained:
Type in all cases: cell-based, Human
NRF2 gene [1] = test: NRF2 gene editing (indel/frameshift) analysis by NGS and CRISPResso2 in KYSE-410 cells; conditions: for gene editing activity (indel profiles): seventy-two hours post-transfection; for knocking out NRF2 (DNA sequence data): exon 4
Procedure: The NRF2 gene-coding sequence was entered into SnapGene and the following gRNAs were selected for targeting exon 2: (sg3) 5′-[…]-3′ (SEQ ID NO:75); as well as two gRNAs targeting Exon 4: (sg76) 5′-[…]-3′ (SEQ ID NO:16), (sg83) 5′-[…]-3′ (SEQ ID NO:24). Based on the gRNA design, synthetic single gRNAs were ordered from Synthego (Menlo Park, California, USA). CleanCap® Cas9 mRNA (5moU) was ordered from TriLink Biotechnologies (San Diego, CA, USA).
Either one million cells were seeded to a 75 cm^2 tissue culture flask or 2.5 million cells were seeded to a 175 cm^2 tissue culture flask 24 hours prior to transfection and allowed to reach 60-80% confluency. On the day of the transfection, cells were treated with Lipofectamine MessengerMAX reagent (Thermo Fisher Scientific, Waltham, MA) bearing 10 μg or 25 μg of Cas9mRNA and 10 μg or 25 μg of sgRNA, suspended in Opti-MEM, per the manufacturer's instructions. 39 μL or 97.5 μL of MessengerMax lipofectamine reagent was diluted in 1.5 mL or 3.75 mL OPTI-MEM medium and vortexed twice was incubated for ten minutes at room temperature, during which time the culture media was replaced with 15 mL or 25 mL of fresh media, as appropriate to the cell line. A total of 20 μg or 50 μg of RNA was then added to the diluted lipofectamine, consisting of 10 μg or 25 μg Cas9 mRNA and 10 μg or 25 μg sgRNA. The suspension was incubated at room temperature for an additional five minutes before being added, in full, to the tissue culture flask, which was then swirled gently to disperse the reagent. Treated cells were incubated for 72 hours at 37° C. prior to being assayed.
Targeted amplicon libraries were prepared using Illumina's 16S metagenomic sequencing library preparation protocol for MiSeq. Genomic DNA was extracted from cells using the Qiagen's DNeasy Blood & Tissue kit (Quiagen, Hilden, Germany) or QuickExtract reagent (Biosearch Technologies). The region surrounding the CRISPR target site for Exon 2 (398 bp) and Exon 4 (402 bp) of the NRF2 gene were amplified using the 2× Phusion Flash PCR master mix (Thermo Fisher Scientific, Waltham, MA). Post amplification, samples were cleaned using AMPure beads and DNA concentration was measured using the Qubit assay (Thermo Fisher Scientific, Waltham, MA). Samples are also run on TapeStation (Agilent Technologies Santa Clara, CA) to verify the presence of the desired amplicon. The samples were indexed using either the IDT for Illumina DNA/RNA UD indexes set A (Illumina San Diego, CA). Samples were again quantified using Qubit and average library size was calculated using the Tapestation amplicon size. Once pooled to the loading concentration, the libraries were sequenced using the MiSeq Reagent kit v2 (Illumina, San Diego, CA). Only the data that passed data QC in Sequencing Analysis Viewer, was analyzed using CRISPResso2 (CRISPResso2 website) to understand gene editing efficiency and frameshift analysis.

NRF2 gene [2] = test: Exon skipping analysis of NRF2 cDNA in FaDu and KYSE-410 cells; conditions: 72 hours post-transfection, cDNA PCR 5′UTR to exon 5
Procedure: Total RNA was isolated from edited cells using TRIzol reagent and PureLink RNA Mini Kit (Thermo Fisher Scientific, Waltham, MA). Reverse transcription was conducted using the Applied Biosystems High-Capacity RNA-to-cDNA kit (Thermo Fisher Scientific, Waltham, MA). The cDNA was used as the template for PCR amplification with either Phusion Flash or Phusion High-Fidelity PCR master mix (Thermo Fisher Scientific, Waltham, MA) with primers spanning the 5′UTR region through Exon 5 (798 bp) of the NRF2 gene. PCR reactions were purified using Qiagen Qiaquick PCR cleanup columns (Quiagen, Hilden, Germany) according to manufacturer's protocol, measured on a Nanodrop and equally loaded on a 1% agarose gel.
The difference between targeting exon 2 and exon 4 was intriguing, so we wanted to see if a molecular rearrangement, exon skipping, which we had identified previously within the NRF2 gene was at least in part responsible for this difference^33. Since we know NRF2 exon 2 and exon 4 are disrupted by design, and intra-genic changes are the objective of the experiment, we asked if exon skipping could account for the differential response in targeting exon 2 versus exon 4. FIG. 14A represents the potential exon skipping outcomes. For both the FADU and the KYSE-410 cells, at 72 hours post-transfection RNA was converted to cDNA followed by PCR amplification of the NRF2 cDNA (798 bp) spanning the 5′UTR to exon 5. […] The 798 bp is the full transcript while the lower band for sg3 is 531 bp and sg76 is 606 bp, the expected sizes of the removal of exon 2 (267 bp) and exon 4 (192 bp).

[3] = tested on: NRF2 downstream target genes (NQO1, HMOX1, GCLC); test: qPCR gene expression analysis of NRF2 and downstream targets in FaDu cells; conditions: for NQO1 expression (qPCR): vs wildtype unedited cells, without cisplatin exposure
Procedure: Total RNA was isolated from edited cells using TRIzol reagent and PureLink RNA Mini Kit (Thermo Fisher Scientific, Waltham, MA). Reverse transcription was conducted using the Applied Biosystems High-Capacity RNA-to-cDNA kit (Thermo Fisher Scientific, Waltham, MA). The cDNA was used as the template in the qPCR amplification of GAPDH (Fwd 5′ […]3′ (SEQ ID NO:76), Rev 5′[…]3′ (SEQ ID NO:77)), NRF2 (Fwd 5′[…]3′ (SEQ ID NO:78), Rev 5′[…]3′ (SEQ ID NO:79)), NQO1 (Fwd 5′[…]3′ (SEQ ID NO:80), Rev 5′[…]3′ (SEQ ID NO:81)), HMOX1 (Fwd 5′ […]3′ (SEQ ID NO:82), Rev 5′[…]3′ (SEQ ID NO:83)) and GCLC (Fwd 5′[…]3′ (SEQ ID NO:84), Rev 5′ […]3′ (SEQ ID NO:85)) transcripts using the SsoAdvanced universal SYBR Green Supermix (BioRad, Hercules, CA). The experiment was conducted at least twice with all samples run in duplicate at minimum. Relative expression levels of mRNA were calculated using the Livak method and normalized to the control. The data was plotted with the coefficient of variance.
For all gene editing studies from bench to bedside, it is important to employ a functional assay, accompanied by an internal functional control, to assess the efficiency of CRISPR/Cas activity. In this case, NRF2 is a transcription factor that controls the expression of over 200 genes. Thus, NRF2 disruption can be measured functionally through qPCR analysis of NQO1 expression, a keystone gene controlled by NRF2. NQO1 has been used as a standard measure of NRF2 activity in cancer cells^40. We also use downstream targets HMOX1 and GCLC, two major antioxidant enzymes, to assess NRF2 function.

| Substance | gene editing activity (indel profiles) (NRF2 gene [1]) [%] | exon skipping (NRF2 gene [2]) | expression of NQO1, HMOX1, and GCLC ([3]; 2 week timepoint) | expression of downstream target genes relative to NRF2 levels (ratio) ([3]; 72 hr) | knocking out NRF2 (DNA sequence data) (NRF2 gene [1]) | NQO1 expression (qPCR) [3] | expression of NQO1 and GCLC ([3]; 2 week timepoint, compared to sg3 and sg76) | NQO1 and GCLC expression levels ([3]; 72 hr) |
| --- | --- | --- | --- | --- | --- | --- | --- | --- |
| sg3: gRNA targeting the DLG motif in exon 2 of NRF2; 5′-TATTTGACTTCAGTCAGCGA-3′ or TGGAGGCAAGATATAGATCT (further chemistry not given here) [reference compound] | 97 | second lower band indicative of an exon skipping event | increase in expression | do not show a reduction in expression of downstream target genes relative to NRF2 levels | – | – | – | – |
| sg76: gRNA targeting exon 4 of NRF2; TCACTTGTTCCTGATATTCC CGG (guide TCACTTGTTCCTGATATTCCCGG; listed as DNA, chemistry not given here) | 97 | second lower band indicative of an exon skipping event | – | do not show a reduction in expression of downstream target genes relative to NRF2 levels | efficient in knocking out NRF2 at exon 4 | significantly decreased | – | – |
| sg83: gRNA targeting exon 4 of NRF2; GTAGCCCCTGTTGATTTAGA CGG (guide GTAGCCCCTGTTGATTTAGACGG; listed as DNA, chemistry not given here) | 97 | some level of exon skipping activity is detected but at much lower rate | – | – | efficient in knocking out NRF2 at exon 4 | significantly decreased | lower expression of NQO1 and GCLC | diminished |
